The record followed here is patent US10610520B2, “Heterocyclic compound” (Takeda Pharmaceutical Company Limited, priority 2016, dated 2020).

Each structure is given as a SMILES string.

By inhibition is commonly meant the share of the control response that was lost under treatment.

In series [1] the target is T1, His-hMAGL (recombinant polyhistidine tagged human MAGL protein) (Homo sapiens, UniProt Q99685).
T1 construct: made in house; host or cells: E. coli BL21(DE3)
T1 sequence (Q99685 1-303): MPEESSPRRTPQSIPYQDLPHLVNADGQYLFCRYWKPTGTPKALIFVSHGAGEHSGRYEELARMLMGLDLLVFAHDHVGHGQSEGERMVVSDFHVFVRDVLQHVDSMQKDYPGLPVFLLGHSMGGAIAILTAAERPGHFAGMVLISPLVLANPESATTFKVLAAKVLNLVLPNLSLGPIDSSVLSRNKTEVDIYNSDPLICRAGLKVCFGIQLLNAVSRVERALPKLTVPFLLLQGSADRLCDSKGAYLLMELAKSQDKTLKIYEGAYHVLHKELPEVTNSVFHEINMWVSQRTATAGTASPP
Briefly: Measurement of MAGL inhibitory activity (arachidonic acid production from 2-arachidonylglycerol, RapidFire-mass spectrometry). Type of series: biochemical. Particulars: MAGL inhibitory rate, test compound 10 μM, 60 min preincubation, 2-arachidonylglycerol substrate. The method in brief: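 Arachidonic acid formed was quantified by online solid-phase extraction and triple-quadrupole MS in negative SRM mode against a d8 internal standard. Reaction: recombinant His-hMAGL (7.5 ng/mL, pH 7.5 Tris buffer with Triton X-100 and BSA) plus 2-AG (5 μL of 150 μM stock) for 10 min at room temperature, quenched with 2% formic acid. Percent inhibition corrected for enzyme-free background.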

Series [2] has as its system intracerebral 2-AG and arachidonic acid. Put plainly: Measurement of intracerebral 2-AG and arachidonic acid concentrations after oral administration. The series is classed as in vivo, C57BL/6J mice. Particulars: for 2-AG concentration / arachidonic acid concentration: cerebrum, male C57BL/6J mice, 3 mg/kg by gavage; for 2-AG concentration: control 9.9; for arachidonic acid concentration: control 163.5; for migration into brain: oral administration to C57BL/6J mice, 3 mg/kg. Here is the method: As the mouse, 8-week-old male C57BL/6J mice (CLEA Japan, Inc.) were used (6 mice/group). Administration solutions were prepared by suspending the test compounds (compound 1 (compound of Example 279), compound 2 (compound of Example 361) and compound 3 (compound of Example 362)) in 0.5% methylcellulose solution (Wako Pure Chemical Industries, Ltd.). The dose of the test compound was prepared to be 3 mg/kg body weight/10 mL. The test compounds were administered by gavage at 3 mg/kg body weight. The cerebrum was isolated after the administration of the test compound (isolation time after the administration of the test compound is shown in Table 3), and the cerebrum hemisphere was extracted. The obtained cerebrum hemisphere was frozen on dry ice, and the frozen tissue weight was measured.
The cerebral tissue weight was measured, and cerebral tissue was homogenized with 4-fold (v/w) of isopropanol (IPA), and double diluted with IPA. To the diluted sample (200 μL) was added internal standard solution (5 μL) ([5,6,8,9,11,12,14,15-D8]-(5Z,8Z,11Z,14Z)5,8,11,14-eicosatetraenoic acid (AA-d8, 0.5 nmol/mL IPA) and [5,6,8,9,11,12,14,15-D8]-(5Z,8Z,11Z,14Z)-5,8,11,14-eicosatetraenoyl-2-glycerol ester (2-AG-d3, 0.5 nmol/mL IPA)), and the mixture was centrifuged at 15000 rpm for 5 min. The supernatant was injected to liquid chromatography mass spectrometer to perform quantitative analysis.
For liquid chromatography, Shimadzu LC20A system (Shimadzu Corporation) was used. The separation was performed by gradient elution method with mobile phase A (10 mmol/L HCOONH4/HCOOH (100:0.2, v/v)) and mobile phase B (ethanol/IPA (3:2, v/v)) using Shim-pack XR-ODS (2.2 μm, 2.0×30 mm, Shimadzu Corporation) at column temperature of 50° C., at flow rate of 0.5 mL/min. The gradient conditions are as follows: 0-1 min, 1% B; 1-1.2 min, 1-55% B; 1.2-2.7 min, 55-75% B; 2.7-3.5 min, 75-99% B; 3.5-6 min, 99% B; 6-8 min, 1% B.
For mass spectrometer, API5000 (AB SCIEX) was used. The eluate from the liquid chromatography was directly ionized by turbospray ionization method, where (5Z,8Z,11Z,14Z)5,8,11,14-eicosatetraenoic acid (AA) and AA-d8 were measured by negative ionization mode, and (5Z,8Z,11Z,14Z)5,8,11,14-eicosatetraenoyl-2-glycerol ester (2-AG) and 2-AG-d3 were measured by positive ionization mode.
A solution for calibration curve was prepared to the concentration of 2, 5, 10, 20, 50, 100, 200, 500, 1000 nmol/mL of acetonitrile. These solutions (10 μL) was mixed with 200 μL of IPA and 5 μL of internal standard solution, and the mixture was centrifuged at 15000 rpm for 5 min, and the supernatant was injected to liquid chromatography mass spectrometer to perform analysis. The calibration curve was drawn by regression line with a weighting of 1/x^2, and the quantitativity was confirmed by accuracy of 100±20% and R^2>0.99.

The mark [3] stands for this setting: isolation 2 hour after administration.
[4] abbreviates: isolation 1 hour after administration.

Turning to `O=C1NC2(CO1)CN(C(=O)[C@H]1C[C@H](OCc3ccc(C(F)(F)F)cc3F)C1)C2` [Example 354, 2-((trans-3-((2-fluoro-4-(trifluoromethyl)benzyl)oxy)cyclobutyl)carbonyl)-7-oxa-2,5-diazaspiro[3.4]octan-6-one], the inhibition at 10 µM in series [1] was found to be 100%.
Take `Cc1ccc(CO[C@H]2C[C@@H](C(=O)N3CC4(COC(=O)N4)C3)C2)cc1Cl` [Example 356, 2-((cis-3-((3-chloro-4-methylbenzyl)oxy)cyclobutyl)carbonyl)-7-oxa-2,5-diazaspiro[3.4]octan-6-one]: the inhibition at 10 µM in series [1] turned out to be 100%.
On to `Cc1cc(CO[C@H]2C[C@@H](C(=O)N3CC4(COC(=O)N4)C3)C2)ccc1Cl` [Example 357, 2-((cis-3-((4-chloro-3-methylbenzyl)oxy)cyclobutyl)carbonyl)-7-oxa-2,5-diazaspiro[3.4]octan-6-one], for which the inhibition at 10 µM in series [1] came to 100%.
Regarding `Cc1cc(CO[C@H]2C[C@H](C(=O)N3CC4(COC(=O)N4)C3)C2)ccc1Cl` [Example 358, 2-((trans-3-((4-chloro-3-methylbenzyl)oxy)cyclobutyl)carbonyl)-7-oxa-2,5-diazaspiro[3.4]octan-6-one], the inhibition at 10 µM in series [1] worked out at 100%.
Regarding `O=C1NC2(CO1)CN(C(=O)[C@H]1C[C@@H](OCc3ccc(C(F)(F)F)c(Cl)c3)C1)C2` [Example 359, 2-((cis-3-((3-chloro-4-(trifluoromethyl)benzyl)oxy)cyclobutyl)carbonyl)-7-oxa-2,5-diazaspiro[3.4]octan-6-one], the inhibition at 10 µM in series [1] is 99%.
Regarding `O=C1NC2(CO1)CN(C(=O)c1sc3c(F)c(OC(F)(F)F)ccc3c1C(F)F)C2` [Example 360, 2-((3-(difluoromethyl)-7-fluoro-6-(trifluoromethoxy)-1-benzothiophen-2-yl)carbonyl)-7-oxa-2,5-diazaspiro[3.4]octan-6-one], the inhibition at 10 µM in series [1] came to 100%.
As for `O=C1NC2(CO1)CN(C(=O)c1sc3cc(F)ccc3c1Cl)C2` [Example 361, 2-((3-chloro-6-fluoro-1-benzothiophen-2-yl)carbonyl)-7-oxa-2,5-diazaspiro[3.4]octan-6-one], the inhibition at 10 µM in series [1] is 99%.
The same measure, in the same setting: in the case of `O=C1NC2(CO1)CN(C(=O)c1sc3cc(F)cc(F)c3c1Cl)C2` [Example 362, 2-((3-chloro-4,6-difluoro-1-benzothiophen-2-yl)carbonyl)-7-oxa-2,5-diazaspiro[3.4]octan-6-one] it was 100%; in that of `O=C1NC2(CO1)CN(C(=O)c1sc3cc(F)cc(OCC4CC4)c3c1Cl)C2` [Example 363, 2-((3-chloro-4-(cyclopropylmethoxy)-6-fluoro-1-benzothiophen-2-yl)carbonyl)-7-oxa-2,5-diazaspiro[3.4]octan-6-one], 99%.
Regarding `O=C1NC2(CO1)CN(C(=O)c1sc3cc(Cl)ccc3c1Cl)C2` [Example 364, 2-((3,6-dichloro-1-benzothiophen-2-yl)carbonyl)-7-oxa-2,5-diazaspiro[3.4]octan-6-one], the inhibition at 10 µM in series [1] was determined as 100%.
For the molecule `O=C1NC2(CCN(C(=O)c3sc4cc(C(F)(F)F)ccc4c3Cl)C2)CO1` (stereo not drawn) [Example 365, 7-((3-chloro-6-(trifluoromethyl)-1-benzothiophen-2-yl)carbonyl)-3-oxa-1,7-diazaspiro[4.4]nonan-2-one], in series [1], the inhibition at 10 µM stood at 100%.
As for `Cc1c(C(=O)N2CC3(CCC(=O)N3)C2)sc2cc(C(F)(F)F)ccc12` [Example 366, 2-((3-methyl-6-(trifluoromethyl)-1-benzothiophen-2-yl)carbonyl)-2,5-diazaspiro[3.4]octan-6-one], in series [1], the inhibition at 10 µM came to 99%.
For the molecule `O=C1NC2(CO1)CN(C(=O)c1sc3c(F)c(OC(F)(F)F)ccc3c1Cl)C2` [compound 1, 2-((3-chloro-7-fluoro-6-(trifluoromethoxy)-1-benzothiophen-2-yl)carbonyl)-7-oxa-2,5-diazaspiro[3.4]octan-6-one], in series [2] (setting [3]), the “2-AG concentration” value is 73.2 nmol/g and the “arachidonic acid concentration” value is 109.4 nmol/g. For the same molecule, the migration into brain entry in series [2] is reported as “migrated into brain”.
As to `O=C1NC2(CO1)CN(C(=O)c1sc3cc(F)ccc3c1Cl)C2` [compound 2, 2-((3-chloro-6-fluoro-1-benzothiophen-2-yl)carbonyl)-7-oxa-2,5-diazaspiro[3.4]octan-6-one], in series [2] (setting [4]), the “2-AG concentration” value worked out at 30.2 nmol/g and the “arachidonic acid concentration” value stood at 151.8 nmol/g. Also, in series [2], the migration into brain entry is reported as “migrated into brain”.
Turning to `O=C1NC2(CO1)CN(C(=O)c1sc3cc(F)cc(F)c3c1Cl)C2` [compound 3, 2-((3-chloro-4,6-difluoro-1-benzothiophen-2-yl)carbonyl)-7-oxa-2,5-diazaspiro[3.4]octan-6-one], in series [2] (setting [4]), the “2-AG concentration” value was 25.7 nmol/g and the “arachidonic acid concentration” value amounted to 156.1 nmol/g. Also, the migration into brain result in series [2] was “migrated into brain”.
